In patent publication US8623896B2, “Insecticidal compounds” (Syngenta Crop Protection, LLC, priority 2007, dated 2014):

Columns and labels:
Format in all cases: in vivo
Settings in all cases: same protocol, 200 ppm
[1] = test system: Heliothis virescens (Tobacco Budworm); test: Heliothis virescens egg test on artificial diet
Procedure: Eggs (0-24 h old) were placed in 24-well microtiter plate on artificial diet and treated with test solutions at an application rate of 200 ppm (concentration in well 18 ppm) by pipetting. After an incubation period of 4 days, samples were checked for egg mortality, larval mortality, and growth regulation.

[2] = test system: Spodoptera littoralis (Egyptian Cotton Leafworm); test: Spodoptera littoralis cotton leaf disc spray test
Source text: Cotton leaf discs were placed on agar in a 24-well microtiter plate and sprayed with test solutions at an application rate of 200 ppm. After drying, the leaf discs were infested with 5 L1 larvae. The samples were checked for mortality, feeding behavior, and growth regulation 3 days after treatment (DAT).

[3] = test system: Plutella xylostella (Diamond Back Moth); test: Plutella xylostella larvae test on artificial diet
Procedure: (§1) 24-well microtiter plate (MTP) with artificial diet was treated with test solutions at an application rate of 200 ppm (concentration in well 18 ppm) by pipetting. After drying, the MTP's were infested with L2 larvae (7-12 per well). After an incubation period of 6 days, samples were checked for larval mortality and growth regulation.

[4] = test system: Tetranychus urticae (Two-Spotted Spider Mite); test: Tetranychus urticae bean leaf disc spray test
Source text: Bean leaf discs on agar in 24-well microtiter plates were sprayed with test solutions at an application rate of 200 ppm. After drying, the leaf discs are infested with mite populations of mixed ages. 8 days later, discs are checked for egg mortality, larval mortality, and adult mortality.

[5] = test system: Thrips tabaci (Onion Trips); test: Thrips tabaci sunflower leaf disc spray test
[6] = test system: Diabrotica balteata (Corn Root Worm); test: Diabrotica balteata larvae test on artificial diet
Procedure: as §1, with “A 24-well” for “24-well”, “(6-10” for “(7-12”, “5” for “6”

Measured: effect on mortality, feeding behavior, or growth regulation

CC1(NC(=O)c2ccc(C3=NOC(c4cc(Cl)cc(Cl)c4)(C(F)(F)F)C3)cc2C#N)CSC1 (stereo not drawn) [A18]
little or no effect: [1] | [2] | [3] | [4] | [5] | [6]

N#Cc1cc(C2=NOC(c3cc(Cl)cc(Cl)c3)(C(F)(F)F)C2)ccc1C(=O)NC1CSC1 (stereo not drawn) [A19]
little or no effect: [1] | [2] | [3] | [4] | [5] | [6]

Cc1cc(C2=NOC(c3cc(Cl)cc(Cl)c3)(C(F)(F)F)C2)ccc1C(=O)NCC1CCN1Cc1ccccc1 (stereo not drawn) [B2]
little or no effect: [1] | [2] | [3] | [4] | [5] | [6]
